Literature values in paper PMC5742115, “Pharmacophore Modeling and in Silico/in Vitro Screening for Human Cytochrome P450 11B1 and Cytochrome P450 11B2 Inhibitors” (Frontiers in Chemistry, 2017).
Like-named read-outs stand apart in the source and are kept apart here.

How the values were obtained:
CYP11B1 = conditions: reported activity, supplementary Table 1, read-out: CYP11B1 IC50, cited from earlier work
CYP11B2 = conditions: reported activity, supplementary Table 1, read-out: CYP11B2 IC50, cited from earlier work

Q: Which IC50 (CYP11B1; ref Hille et al., 2011a) does the source give for Fc1ccccc1-c1ccc(Cn2ccnc2)cn1 [CHEMBL2011244] here?
A: 72 nM

Q: What about the IC50 (CYP11B2; ref Hille et al., 2011a) of the same compound?
A: 1740 nM

Q: For Oc1ccc(-c2ccc(Cn3ccnc3)cn2)cc1F [CHEMBL2011246], which IC50 (CYP11B1; ref Hille et al., 2011a) is on record?
A: 17 nM

Q: And the IC50 (CYP11B2; ref Hille et al., 2011a)?
A: 237 nM

Q: With c1ccc2c(-c3ccc(Cn4ccnc4)cn3)cccc2c1 [CHEMBL2011253] as the compound, how does the IC50 (CYP11B1; ref Emmerich et al., 2013) read?
A: 68 nM

Q: And the IC50 (CYP11B1; ref Hille et al., 2011a)?
A: 42 nM

Q: What about the IC50 (CYP11B2; ref Emmerich et al., 2013) of the same compound?
A: 656 nM

Q: What about the IC50 (CYP11B2; ref Hille et al., 2011a) of the same compound?
A: 2080 nM

Q: With c1ccc2c(-c3ccc(Cn4ccnc4)cn3)cncc2c1 [CHEMBL2011260] as the compound, how does the IC50 (CYP11B1; ref Hille et al., 2011a) read?
A: 95 nM

Q: What about the IC50 (CYP11B2; ref Hille et al., 2011a) of the same compound?
A: 914 nM

Q: What does the source list for c1csc(-c2ccc(Cn3ccnc3)cn2)c1 [CHEMBL2011261]?
A: IC50 (CYP11B1; ref Hille et al., 2011a): 75 nM; IC50 (CYP11B2; ref Hille et al., 2011a): 1240 nM

Q: With Clc1ncc(Cn2ccnc2)cc1-c1cccs1 [CHEMBL2011430] as the compound, how does the IC50 (CYP11B1; ref Hille et al., 2011a) read?
A: 73 nM

Q: What about the IC50 (CYP11B2; ref Hille et al., 2011a) of the same compound?
A: 416 nM

Q: With c1ccc2c(-c3ccc(Cn4ccnc4)cn3)csc2c1 [CHEMBL2011433] as the compound, how does the IC50 (CYP11B1; ref Hille et al., 2011a) read?
A: 40 nM

Q: And the IC50 (CYP11B2; ref Hille et al., 2011a)?
A: 1160 nM

Q: What does the source list for c1cn(Cc2ccc(-c3ccoc3)nc2)cn1 [CHEMBL2011435]?
A: IC50 (CYP11B1; ref Hille et al., 2011a): 76 nM; IC50 (CYP11B2; ref Hille et al., 2011a): 2830 nM

Q: Which results are given for c1coc(-c2cc(Cn3ccnc3)cnc2-c2ccco2)c1 [CHEMBL2011437]?
A: IC50 (CYP11B1; ref Hille et al., 2011a): 29 nM; IC50 (CYP11B2; ref Hille et al., 2011a): 830 nM

Q: With CC(c1cc2c3c(c1)CCN3C(=O)CC2)n1ccnc1 (stereo not drawn) [CHEMBL2163636] as the compound, how does the IC50 (CYP11B1; ref Yin et al., 2012) read?
A: 17 nM

Q: And the IC50 (CYP11B2; ref Yin et al., 2012)?
A: 15 nM

Q: With CCC(c1cc2c3c(c1)CCN3C(=O)CC2)n1ccnc1 (stereo not drawn) [CHEMBL2163637] as the compound, how does the IC50 (CYP11B1; ref Yin et al., 2012) read?
A: 6.5 nM

Q: What about the IC50 (CYP11B2; ref Yin et al., 2012) of the same compound?
A: 5.8 nM

Q: What does the source list for CC(C)C(c1cc2c3c(c1)CCN3C(=O)CC2)n1ccnc1 (stereo not drawn) [CHEMBL2163638]?
A: IC50 (CYP11B1; ref Yin et al., 2012): 3.8 nM; IC50 (CYP11B2; ref Yin et al., 2012): 1.4 nM

Q: With O=C1CCc2cc(C(C3CC3)n3ccnc3)cc3c2N1CC3 (stereo not drawn) [CHEMBL2163639] as the compound, how does the IC50 (CYP11B1; ref Yin et al., 2012) read?
A: 2.2 nM

Q: And the IC50 (CYP11B2; ref Yin et al., 2012)?
A: 24 nM

Q: Which IC50 (CYP11B1; ref Yin et al., 2012) does the source give for O=C1CCc2cc(C(C3CCC3)n3ccnc3)cc3c2N1CC3 (stereo not drawn) [CHEMBL2163640] here?
A: 3.4 nM

Q: And the IC50 (CYP11B2; ref Yin et al., 2012)?
A: 4.2 nM

Q: For C=C(c1cc2c3c(c1)CCN3C(=O)CC2)n1ccnc1 [CHEMBL2163641], which IC50 (CYP11B1; ref Yin et al., 2012) is on record?
A: 19 nM

Q: What about the IC50 (CYP11B2; ref Yin et al., 2012) of the same compound?
A: 100 nM

Q: Which IC50 (CYP11B1; ref Yin et al., 2012) does the source give for O=C1CCc2cc(C(c3ccccc3F)n3ccnc3)cc3c2N1CC3 (stereo not drawn) [CHEMBL2163642] here?
A: 40 nM

Q: And the IC50 (CYP11B2; ref Yin et al., 2012)?
A: 19 nM

Q: Which IC50 (CYP11B1; ref Yin et al., 2012) does the source give for O=C1CCc2cc(C(c3cccc(F)c3)n3ccnc3)cc3c2N1CC3 (stereo not drawn) [CHEMBL2163643] here?
A: 29 nM

Q: What about the IC50 (CYP11B2; ref Yin et al., 2012) of the same compound?
A: 18 nM

Q: Which results are given for O=C1CCc2cc(C(c3ccc(F)cc3)n3ccnc3)cc3c2N1CC3 (stereo not drawn) [CHEMBL2163644]?
A: IC50 (CYP11B1; ref Yin et al., 2012): 27 nM; IC50 (CYP11B2; ref Yin et al., 2012): 29 nM

Q: Which results are given for COc1cccc(C(c2cc3c4c(c2)CCN4C(=O)CC3)n2ccnc2)c1 (stereo not drawn) [CHEMBL2163645]?
A: IC50 (CYP11B1; ref Yin et al., 2012): 110 nM; IC50 (CYP11B2; ref Yin et al., 2012): 88 nM

Q: With O=C1CCc2cc(C(c3ccccc3)n3ccnc3)cc3c2N1CC3 (stereo not drawn) [CHEMBL2163649] as the compound, how does the IC50 (CYP11B1; ref Yin et al., 2012) read?
A: 50 nM

Q: And the IC50 (CYP11B2; ref Yin et al., 2012)?
A: 33 nM

Q: What does the source list for O=C1CCc2cc(C(c3ccco3)n3ccnc3)cc3c2N1CC3 (stereo not drawn) [CHEMBL2163650]?
A: IC50 (CYP11B1; ref Yin et al., 2012): 20 nM; IC50 (CYP11B2; ref Yin et al., 2012): 47 nM

Q: Which IC50 (CYP11B1; ref Yin et al., 2012) does the source give for O=C1CCc2cc(C(c3cccs3)n3ccnc3)cc3c2N1CC3 (stereo not drawn) [CHEMBL2163651] here?
A: 13 nM

Q: And the IC50 (CYP11B2; ref Yin et al., 2012)?
A: 18 nM

Q: Which IC50 (CYP11B1; ref Hu et al., 2012) does the source give for COc1cc2c(cc1-c1cccnc1)CCC(=O)N2C [CHEMBL2165315] here?
A: 1100 nM

Q: What about the IC50 (CYP11B2; ref Hu et al., 2012) of the same compound?
A: 19 nM

Q: Which results are given for CCOc1cc2c(cc1-c1cccnc1)CCC(=O)N2C [CHEMBL2165317]?
A: IC50 (CYP11B1; ref Hu et al., 2012): 790 nM; IC50 (CYP11B2; ref Hu et al., 2012): 19 nM

Q: What does the source list for O=C1CCc2cc(-c3cccnc3)c(OCc3ccccc3)cc2N1 [CHEMBL2165320]?
A: IC50 (CYP11B1; ref Hu et al., 2012): 44 nM; IC50 (CYP11B2; ref Hu et al., 2012): 22 nM

Q: With O=C1CCc2cc(-c3cccnc3)cc(Br)c2N1 [CHEMBL2165322] as the compound, how does the IC50 (CYP11B1; ref Hu et al., 2012) read?
A: 1420 nM

Q: And the IC50 (CYP11B2; ref Hu et al., 2012)?
A: 12 nM

Q: Which IC50 (CYP11B1; ref Yin et al., 2013) does the source give for C=C(c1ccncc1)c1cc2c3c(c1)CCN3C(=O)CC2 [CHEMBL2312949] here?
A: 1230 nM

Q: What about the IC50 (CYP11B2; ref Yin et al., 2013) of the same compound?
A: 96 nM

Q: With CC(c1ccncc1)c1cc2c3c(c1)CCN3C(=O)CC2 (stereo not drawn) [CHEMBL2312950] as the compound, how does the IC50 (CYP11B1; ref Yin et al., 2013) read?
A: 140 nM

Q: And the IC50 (CYP11B2; ref Yin et al., 2013)?
A: 74 nM

Q: What does the source list for O=C1CCc2cc(C(O)(c3ccccc3)c3ccncc3)cc3c2N1CC3 (stereo not drawn) [CHEMBL2312953]?
A: IC50 (CYP11B1; ref Yin et al., 2013): 745 nM; IC50 (CYP11B2; ref Yin et al., 2013): 85 nM

Q: For COc1ccc(C(c2ccncc2)c2cc3c4c(c2)CCN4C(=O)CC3)cc1 (stereo not drawn) [CHEMBL2312957], which IC50 (CYP11B1; ref Yin et al., 2013) is on record?
A: 1690 nM

Q: What about the IC50 (CYP11B2; ref Yin et al., 2013) of the same compound?
A: 46 nM

Q: Which IC50 (CYP11B1; ref Yin et al., 2013) does the source give for O=C1CCc2cc(C(c3ccncc3)c3cccc(F)c3)cc3c2N1CC3 (stereo not drawn) [CHEMBL2312958] here?
A: 532 nM

Q: What about the IC50 (CYP11B2; ref Yin et al., 2013) of the same compound?
A: 88 nM

Q: For O=C1CCc2cc(C(c3ccncc3)c3ccc(F)cc3)cc3c2N1CC3 (stereo not drawn) [CHEMBL2312959], which IC50 (CYP11B1; ref Yin et al., 2013) is on record?
A: 88 nM

Q: What about the IC50 (CYP11B2; ref Yin et al., 2013) of the same compound?
A: 56 nM

Q: For O=C1CCc2cc(C(c3ccncc3)c3cccc(Cl)c3)cc3c2N1CC3 (stereo not drawn) [CHEMBL2312960], which IC50 (CYP11B1; ref Yin et al., 2013) is on record?
A: 646 nM

Q: What about the IC50 (CYP11B2; ref Yin et al., 2013) of the same compound?
A: 51 nM

Q: Which IC50 (CYP11B1; ref Yin et al., 2013) does the source give for O=C1CCc2cc(C(c3ccncc3)c3ccc(Cl)cc3)cc3c2N1CC3 (stereo not drawn) [CHEMBL2312961] here?
A: 92 nM

Q: What about the IC50 (CYP11B2; ref Yin et al., 2013) of the same compound?
A: 32 nM

Q: What does the source list for Cc1cccc(C(c2ccncc2)c2cc3c4c(c2)CCN4C(=O)CC3)c1 (stereo not drawn) [CHEMBL2312962]?
A: IC50 (CYP11B1; ref Yin et al., 2013): 1340 nM; IC50 (CYP11B2; ref Yin et al., 2013): 41 nM
